Measured values from the CheMixHub viscosity set.

Test: xn = mol fraction of the nth substance listed

CC(O)CN1CC[NH+](CC(C)O)CC1.CC(O)CN1CC[NH+](CC(C)O)CC1.O=S(=O)([O-])[O-] (stereo not given) + O
viscosity [mPa·s], 101 kPa
Conditions | 298.15 K | 303.15 K | 308.15 K | 313.15 K | 318.15 K | 323.15 K
x1 = 0.0024 | 1.1 | 0.975 | 0.869 | 0.816 | 0.721 | 0.665
x1 = 0.00505 | 1.382 | 1.232 | 1.111 | 1.026 | 0.906 | 0.807
x1 = 0.00812 | 1.834 | 1.634 | 1.434 | 1.355 | 1.176 | 1.025
x1 = 0.0117 | 2.454 | 2.221 | 1.934 | 1.739 | 1.513 | 1.311
x1 = 0.0158 | 3.565 | 3.115 | 2.653 | 2.327 | 2.009 | 1.727
x1 = 0.0208 | 5.31 | 4.49 | 3.747 | 3.216 | 2.675 | 2.282

CCCCCCCCCCCCCC[P+](CCCCCC)(CCCCCC)CCCCCC.c1ccc2[n-]cnc2c1 + O
Conditions | viscosity [mPa·s]
298.15 K, 100 kPa, x2 = 0.759 | 207

CCCC[NH3+].O=[N+]([O-])[O-] + O
Conditions | viscosity [mPa·s]
298.15 K, 101 kPa, x1 = 0.9022 | 65.05

Cl.N=C(N)N + O
viscosity [mPa·s], 101.3 kPa
Conditions | x1 = 0.0018 | x1 = 0.0045 | x1 = 0.0089 | x1 = 0.013 | x1 = 0.0177
298.15 K | 0.896 | 0.901 | 0.908 | 0.915 | 0.923
308.15 K | 0.722 | 0.727 | 0.735 | 0.742 | 0.748
318.15 K | 0.6 | 0.604 | 0.613 | 0.621 | 0.626

O=S(=O)([O-])[O-].[Mg+2] + O
viscosity [mPa·s]
Conditions | 308.15 K | 313.15 K | 323.15 K
101.3 kPa, x1 = 0.00112 | 0.74 | 0.6745 | 0.5642
101.3 kPa, x1 = 0.002247 | 0.7982 | 0.7215 | 0.605
101.3 kPa, x1 = 0.004484 | 0.8401 | 0.76 | 0.6392
101.3 kPa, x1 = 0.008927 | 0.942 | 0.8575 | 0.733
101.3 kPa, x1 = 0.0177 | 1.094 | 0.955 | 0.8368
101.33 kPa, x1 = 0.000905 | 0.7405 | 0.675 | 0.5648
101.33 kPa, x1 = 0.002718 | 0.7988 | 0.722 | 0.6054
101.33 kPa, x1 = 0.00453 | 0.8405 | 0.7605 | –
101.33 kPa, x1 = 0.006344 | 0.889 | 0.8025 | 0.6695
101.33 kPa, x1 = 0.008159 | 0.942 | 0.858 | 0.7335

O=[N+]([O-])[O-].O=[N+]([O-])[O-].O=[N+]([O-])[O-].[Y+3] + O
viscosity [mPa·s], 101.3 kPa
Conditions | x1 = 0.008908 | x1 = 0.01764 | x1 = 0.02626 | x1 = 0.03447 | x1 = 0.05042 | x1 = 0.06636 | x1 = 0.08199
293.15 K | 1.335 | 1.809 | 2.474 | 3.484 | 7.18 | 15.24 | 33.5
298.15 K | 1.191 | 1.61 | 2.197 | 3.056 | 6.164 | 12.8 | 26.72
308.15 K | 0.9655 | 1.305 | 1.765 | 2.405 | 4.677 | 8.991 | 18.14

CCOC(=O)CC(=O)OCC + O=C1CCCC1
viscosity [mPa·s], 101 kPa
Conditions | x1 = 0.0758 | x1 = 0.1566 | x1 = 0.2437 | x1 = 0.3678 | x1 = 0.4601 | x1 = 0.5678 | x1 = 0.6456 | x1 = 0.7598 | x1 = 0.8459 | x1 = 0.9215
303.15 K | 1.061 | 1.125 | 1.193 | 1.288 | 1.356 | 1.433 | 1.487 | 1.565 | 1.624 | 1.675
308.15 K | 0.981 | 1.038 | 1.098 | 1.18 | 1.24 | 1.307 | 1.355 | 1.425 | 1.477 | 1.524
313.15 K | 0.913 | 0.964 | 1.018 | 1.094 | 1.15 | 1.213 | 1.257 | 1.321 | 1.369 | 1.412

CCOC(=O)CC(=O)OCC + O=C1CCCCC1
viscosity [mPa·s], 101 kPa
Conditions | x1 = 0.0713 | x1 = 0.1285 | x1 = 0.2155 | x1 = 0.3058 | x1 = 0.407 | x1 = 0.5085 | x1 = 0.6055 | x1 = 0.7125 | x1 = 0.8065 | x1 = 0.9118
303.15 K | 1.79 | 1.76 | 1.727 | 1.694 | 1.665 | 1.631 | 1.625 | 1.635 | 1.667 | 1.706
308.15 K | 1.623 | 1.591 | 1.553 | 1.515 | 1.487 | 1.458 | 1.454 | 1.465 | 1.497 | 1.533
313.15 K | 1.495 | 1.463 | 1.423 | 1.386 | 1.352 | 1.333 | 1.33 | 1.341 | 1.371 | 1.406

CCCCCCCCCCCCCC[P+](CCCCCC)(CCCCCC)CCCCCC.c1ccc2[n-]cnc2c1 + O=C=O
Conditions | viscosity [mPa·s]
298.15 K, 100 kPa, x2 = 0.545 | 388

CCN(CC)c1ccccc1 + O=S1(=O)CCCC1
viscosity [mPa·s], 101 kPa
Conditions | x1 = 0.0999 | x1 = 0.2008 | x1 = 0.2993 | x1 = 0.4001 | x1 = 0.5001 | x1 = 0.6027 | x1 = 0.7023 | x1 = 0.7999 | x1 = 0.8991
303.15 K | 8.19 | 6.62 | 5.41 | 4.44 | 3.7 | 3.09 | 2.63 | 2.26 | 1.96
308.15 K | 7.26 | 5.88 | 4.81 | 3.96 | 3.3 | 2.77 | 2.36 | 2.04 | 1.77
313.15 K | 6.45 | 5.25 | 4.31 | 3.54 | 2.96 | 2.49 | 2.13 | 1.84 | 1.6

CC[N+](CC)(CC)CC.O=C([O-])CCCC(=O)O + O=S1(=O)CCCC1
101 kPa, x1 = 0.23
Conditions | viscosity [mPa·s]
303.15 K | 150.1
313.15 K | 90
323.15 K | 58.9

CCN(CC)c1ccccc1 + Oc1ccccc1
viscosity [mPa·s], 101 kPa
Conditions | 298.15 K | 313.15 K | 323.15 K
x1 = 0.0654 | 8.65 | 4.49 | 3.1
x1 = 0.1184 | 8.76 | 4.49 | 3.13
x1 = 0.139 | 8.47 | 4.35 | 3
x1 = 0.1758 | 8.2 | 4.17 | 2.87
x1 = 0.2126 | 7.75 | 3.95 | 2.77
x1 = 0.2997 | 6.44 | 3.49 | 2.48
x1 = 0.3868 | 5.27 | 3 | 2.17
x1 = 0.5 | 4.11 | 2.51 | 1.93
x1 = 0.5955 | 3.27 | 2.13 | 1.65
x1 = 0.6559 | 2.86 | 1.95 | 1.52
x1 = 0.7162 | 2.63 | 1.8 | 1.37
x1 = 0.8502 | 2.17 | 1.48 | 1.22
